Assay results reported in ChEMBL document CHEMBL1201862, “PubChem BioAssay data set” (2004).
Activity calls are given as the source filed them.

Key:
[1] = biological target: Delta-type opioid receptor (Homo sapiens, UniProt P41143); experiment: Counterscreen for agonists of heterodimerization of the mu 1 (OPRM1) and delta 1 (OPRD1) opioid receptors: Luminescence-based cell-based high throughput dose response assay to identify agonists of OPRD1 homodimerization. [Related pubchem assays (depositor defined):AID504326, AID504355, AID504692, AID504904, AID504905]; format: functional
[2] = biological target: T1, Short transient receptor potential channel 4 (Mus musculus, UniProt Q9QUQ5); experiment: mouse TRPC4 channel activators, dose response, cell-based, HEK293 TRPC4/mu-opioid, Fluo-4 calcium (AID 434937); format: functional
T1 sequence (Q9QUQ5 whole entry): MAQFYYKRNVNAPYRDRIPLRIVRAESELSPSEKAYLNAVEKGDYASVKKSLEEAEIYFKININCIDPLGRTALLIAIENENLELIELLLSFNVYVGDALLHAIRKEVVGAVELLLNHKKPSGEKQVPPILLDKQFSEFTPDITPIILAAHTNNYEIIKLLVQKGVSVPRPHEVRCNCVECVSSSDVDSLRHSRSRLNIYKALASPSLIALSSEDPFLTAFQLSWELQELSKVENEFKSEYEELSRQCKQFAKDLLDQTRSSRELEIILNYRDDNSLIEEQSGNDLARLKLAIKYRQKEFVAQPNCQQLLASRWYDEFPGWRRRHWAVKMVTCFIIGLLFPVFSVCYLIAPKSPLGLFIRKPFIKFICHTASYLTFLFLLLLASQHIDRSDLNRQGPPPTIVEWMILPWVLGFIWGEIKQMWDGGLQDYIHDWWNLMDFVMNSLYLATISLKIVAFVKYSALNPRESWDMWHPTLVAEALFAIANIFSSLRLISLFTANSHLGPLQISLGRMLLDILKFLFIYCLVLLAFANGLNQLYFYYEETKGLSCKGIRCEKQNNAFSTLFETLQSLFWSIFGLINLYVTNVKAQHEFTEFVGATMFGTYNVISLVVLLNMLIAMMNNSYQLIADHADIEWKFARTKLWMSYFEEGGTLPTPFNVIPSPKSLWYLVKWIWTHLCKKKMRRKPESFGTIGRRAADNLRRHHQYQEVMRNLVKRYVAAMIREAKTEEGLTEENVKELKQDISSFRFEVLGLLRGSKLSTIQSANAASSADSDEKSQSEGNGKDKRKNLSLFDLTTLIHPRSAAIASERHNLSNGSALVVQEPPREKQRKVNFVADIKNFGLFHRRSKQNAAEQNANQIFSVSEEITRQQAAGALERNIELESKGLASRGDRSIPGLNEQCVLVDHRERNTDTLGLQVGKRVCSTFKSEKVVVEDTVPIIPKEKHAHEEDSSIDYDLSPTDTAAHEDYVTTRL

[3] = biological target: Mu-type opioid receptor (Homo sapiens, UniProt P35372); experiment: Counterscreen for agonists of heterodimerization of the mu 1 (OPRM1) and delta 1 (OPRD1) opioid receptors: Luminescence-based cell-based high throughput dose response assay to identify agonists of OPRM1 homodimerization.; format: functional;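 also: U2OS cells expressing OPRM1 and beta-arrestin as split beta-galactosidase partners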
[4] = biological target: 5-hydroxytryptamine receptor 5A (Homo sapiens, UniProt P47898); experiment: Counterscreen for agonists of OPRM1-OPRD1 heterodimerization: luminescence-based cell-based high throughput dose response assay to identify agonists of 5-hydroxytryptamine (serotonin) 5A receptor (HTR5A). [Related pubchem assays (depositor defined):AID504326, AID504355, AID504692, AID504904, AID504905]; format: functional
[5] = test system: Escherichia coli; experiment: microbe, parasite or virus in culture
[6] = test system: HEK293; experiment: cells; settings: Homo sapiens
[7] = test system: HEK293; experiment: cells; settings: Homo sapiens; remark: listed apart in the source
[8] = test system: Vero; experiment: cells; format: functional; settings: Chlorocebus sabaeus
[9] = test system: H4; experiment: Luminescence Cell-Based Dose Response HTS to Identify Activators of 5'UTR Stem-Loop Driven Prion Protein mRNA Translation in H4 Neuroglioblastoma Cells. [Related pubchem assays: 1829 (Project Summary), 1814 (Primary HTS)]; format: functional; settings: Homo sapiens
[10] = biological target: T2, Microphthalmia-associated transcription factor (Homo sapiens, UniProt O75030); experiment: TRPM1 promoter luciferase signal decrease, dose response, MITF inhibitor project, cell-based, SK-MEL-5, cherry-picked, set 3 (AID 493073); format: functional
T2 sequence (O75030 whole entry): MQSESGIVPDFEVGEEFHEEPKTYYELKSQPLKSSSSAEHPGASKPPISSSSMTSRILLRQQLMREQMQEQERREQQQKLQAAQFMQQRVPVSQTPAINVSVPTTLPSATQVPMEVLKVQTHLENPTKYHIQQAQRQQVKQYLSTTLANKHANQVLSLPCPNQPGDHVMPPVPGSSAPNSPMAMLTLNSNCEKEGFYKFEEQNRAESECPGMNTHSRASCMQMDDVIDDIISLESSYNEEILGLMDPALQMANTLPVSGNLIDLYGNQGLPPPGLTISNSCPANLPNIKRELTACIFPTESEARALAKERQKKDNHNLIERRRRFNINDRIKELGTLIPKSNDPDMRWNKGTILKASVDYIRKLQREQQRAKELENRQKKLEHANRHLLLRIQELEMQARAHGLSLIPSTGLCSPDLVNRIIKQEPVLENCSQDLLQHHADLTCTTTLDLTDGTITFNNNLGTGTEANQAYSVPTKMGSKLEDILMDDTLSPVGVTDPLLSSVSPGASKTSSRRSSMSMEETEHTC

[11] = test system: Vero; experiment: cells; format: functional, cell-based; settings: Chlorocebus sabaeus
[12] = Luminescence Cell-Based Dose Response HTS to Identify Activators of Luciferase Translation or Activity in H4 […] Cells. [Related pubchem assays: 1829 (Project Summary), 1814 (Primary HTS)]; format: functional
[13] = biological target: Nucleotide-binding oligomerization domain-containing protein 1 (Homo sapiens, UniProt Q9Y239); experiment: NOD1 signaling inhibitors, SAR follow-up, revised (AID 2333); format: functional
[14] = biological target: Nucleotide-binding oligomerization domain-containing protein 2 (Homo sapiens, UniProt Q9HC29); experiment: PubChem AID 2334; format: functional
[15] = test system: HEK293; experiment: cells; settings: Homo sapiens; remark: listed apart in the source
[16] = biological target: Tumor necrosis factor (Homo sapiens, UniProt P01375); experiment: TNFa-triggered NF-kB activation inhibitors, SAR follow-up, cell-based, revised (AID 2337); format: functional
[17] = biological target: T3, Apoptotic protease-activating factor 1 (Homo sapiens, UniProt O14727); format: functional
T3 sequence (O14727 whole entry): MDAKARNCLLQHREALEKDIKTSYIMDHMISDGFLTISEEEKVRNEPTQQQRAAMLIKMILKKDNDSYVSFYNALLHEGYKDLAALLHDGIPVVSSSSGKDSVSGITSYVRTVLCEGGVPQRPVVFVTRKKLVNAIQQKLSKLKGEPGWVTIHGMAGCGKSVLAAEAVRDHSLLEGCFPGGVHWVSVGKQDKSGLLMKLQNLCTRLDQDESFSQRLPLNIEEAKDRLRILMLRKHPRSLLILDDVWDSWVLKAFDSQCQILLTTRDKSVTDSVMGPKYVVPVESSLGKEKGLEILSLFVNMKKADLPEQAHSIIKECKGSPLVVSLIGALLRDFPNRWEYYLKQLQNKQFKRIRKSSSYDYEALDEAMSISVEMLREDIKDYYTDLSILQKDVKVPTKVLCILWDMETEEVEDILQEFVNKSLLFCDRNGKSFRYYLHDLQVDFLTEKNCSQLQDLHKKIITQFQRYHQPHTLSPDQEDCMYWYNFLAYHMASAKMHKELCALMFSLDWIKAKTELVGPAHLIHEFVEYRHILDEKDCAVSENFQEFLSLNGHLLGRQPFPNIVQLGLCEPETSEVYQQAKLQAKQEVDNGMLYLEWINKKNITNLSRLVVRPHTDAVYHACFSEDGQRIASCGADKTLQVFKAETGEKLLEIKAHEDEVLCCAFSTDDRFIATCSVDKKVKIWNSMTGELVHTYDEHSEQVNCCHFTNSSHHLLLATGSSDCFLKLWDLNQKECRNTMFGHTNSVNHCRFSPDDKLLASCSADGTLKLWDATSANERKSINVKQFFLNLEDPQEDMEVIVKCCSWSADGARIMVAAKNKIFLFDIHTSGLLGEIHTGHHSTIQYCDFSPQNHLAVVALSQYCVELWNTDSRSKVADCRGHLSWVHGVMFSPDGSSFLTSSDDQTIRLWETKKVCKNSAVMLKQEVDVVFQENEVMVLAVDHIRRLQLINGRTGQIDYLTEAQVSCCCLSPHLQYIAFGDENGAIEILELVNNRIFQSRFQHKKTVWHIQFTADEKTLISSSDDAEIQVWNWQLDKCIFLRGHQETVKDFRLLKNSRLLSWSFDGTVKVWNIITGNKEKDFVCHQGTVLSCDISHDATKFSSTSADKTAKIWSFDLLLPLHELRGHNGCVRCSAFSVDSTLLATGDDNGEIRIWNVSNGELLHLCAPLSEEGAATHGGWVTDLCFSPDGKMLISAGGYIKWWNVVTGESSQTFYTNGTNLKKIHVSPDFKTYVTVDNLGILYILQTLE

[18] = biological target: T4, Ubiquitin-conjugating enzyme E2 N (Homo sapiens, UniProt P61088); format: functional
T4 sequence (P61088 whole entry): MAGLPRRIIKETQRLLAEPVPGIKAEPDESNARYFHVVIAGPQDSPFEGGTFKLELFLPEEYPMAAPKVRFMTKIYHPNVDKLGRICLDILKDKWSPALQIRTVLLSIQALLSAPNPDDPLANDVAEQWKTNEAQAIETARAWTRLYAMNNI

[19] = biological target: T4, Ubiquitin-conjugating enzyme E2 N; format: functional; remark: listed apart in the source
[20] = biological target: T5, Bcl-2-related protein A1 (Mus musculus, UniProt Q07440); format: functional;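 also: confirmatory dose–response counterscreen on Bfl-1, used to check hits from a UBC13 polyubiquitin inhibitor campaign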
T5 sequence (Q07440 whole entry): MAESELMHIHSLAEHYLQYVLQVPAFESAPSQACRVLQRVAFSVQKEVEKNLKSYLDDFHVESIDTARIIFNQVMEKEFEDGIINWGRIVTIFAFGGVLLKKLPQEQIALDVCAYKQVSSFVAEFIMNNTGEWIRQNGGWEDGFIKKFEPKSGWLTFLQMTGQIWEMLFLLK

[21] = test system: INS1; experiment: beta cell apoptosis inhibitors, cytokine rescue, dose response, luminescence, retest (AID 449756); format: functional, cell-based; settings: Rattus norvegicus;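 also: cell death triggered by IL-1 beta plus TNF-alpha plus IFN-gamma mixture; protective hits raise ATP signal compared with cytokine alone wells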
[22] = test system: Escherichia coli; experiment: microbe, parasite or virus in culture; remark: listed apart in the source

Delta-type opioid receptor, sequence (P41143 whole entry): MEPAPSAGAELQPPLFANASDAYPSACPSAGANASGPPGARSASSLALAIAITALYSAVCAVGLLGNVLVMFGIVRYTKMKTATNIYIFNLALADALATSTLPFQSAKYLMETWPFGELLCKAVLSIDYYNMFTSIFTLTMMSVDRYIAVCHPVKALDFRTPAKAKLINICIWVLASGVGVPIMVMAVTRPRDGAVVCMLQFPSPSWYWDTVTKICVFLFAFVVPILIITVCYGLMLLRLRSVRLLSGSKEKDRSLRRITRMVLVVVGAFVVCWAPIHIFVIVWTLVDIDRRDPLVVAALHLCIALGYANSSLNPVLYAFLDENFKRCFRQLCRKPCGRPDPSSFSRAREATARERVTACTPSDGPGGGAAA
5-hydroxytryptamine receptor 5A, sequence (P47898 whole entry): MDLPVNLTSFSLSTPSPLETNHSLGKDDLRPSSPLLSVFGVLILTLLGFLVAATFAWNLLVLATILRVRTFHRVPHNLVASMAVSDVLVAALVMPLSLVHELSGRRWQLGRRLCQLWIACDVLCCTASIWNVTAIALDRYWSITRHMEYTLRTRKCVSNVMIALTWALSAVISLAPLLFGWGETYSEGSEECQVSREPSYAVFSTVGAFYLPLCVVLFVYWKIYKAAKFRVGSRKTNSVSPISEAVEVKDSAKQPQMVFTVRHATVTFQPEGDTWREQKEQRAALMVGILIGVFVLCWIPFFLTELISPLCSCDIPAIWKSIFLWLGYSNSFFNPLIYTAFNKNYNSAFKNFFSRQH
Mu-type opioid receptor, sequence (P35372 whole entry): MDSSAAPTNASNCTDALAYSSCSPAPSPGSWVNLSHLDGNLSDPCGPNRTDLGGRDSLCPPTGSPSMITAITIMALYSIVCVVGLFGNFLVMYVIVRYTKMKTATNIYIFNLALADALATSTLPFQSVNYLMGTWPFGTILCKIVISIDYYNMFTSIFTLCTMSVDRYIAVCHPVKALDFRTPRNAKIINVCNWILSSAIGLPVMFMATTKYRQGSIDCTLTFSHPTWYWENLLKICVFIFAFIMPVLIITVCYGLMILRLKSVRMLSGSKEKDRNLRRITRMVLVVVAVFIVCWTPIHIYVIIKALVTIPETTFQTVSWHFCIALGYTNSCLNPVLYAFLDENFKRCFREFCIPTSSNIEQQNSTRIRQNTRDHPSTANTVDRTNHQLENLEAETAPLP
Tumor necrosis factor, sequence (P01375 whole entry): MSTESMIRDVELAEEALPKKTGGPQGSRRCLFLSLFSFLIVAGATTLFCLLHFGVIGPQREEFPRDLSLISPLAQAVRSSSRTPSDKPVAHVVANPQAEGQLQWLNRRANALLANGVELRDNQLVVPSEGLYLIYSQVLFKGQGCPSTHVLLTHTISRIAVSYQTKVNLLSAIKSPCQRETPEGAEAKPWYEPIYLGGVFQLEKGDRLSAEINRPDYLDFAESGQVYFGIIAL
Nucleotide-binding oligomerization domain-containing protein 2, sequence (Q9HC29 whole entry, the tested form may be a part): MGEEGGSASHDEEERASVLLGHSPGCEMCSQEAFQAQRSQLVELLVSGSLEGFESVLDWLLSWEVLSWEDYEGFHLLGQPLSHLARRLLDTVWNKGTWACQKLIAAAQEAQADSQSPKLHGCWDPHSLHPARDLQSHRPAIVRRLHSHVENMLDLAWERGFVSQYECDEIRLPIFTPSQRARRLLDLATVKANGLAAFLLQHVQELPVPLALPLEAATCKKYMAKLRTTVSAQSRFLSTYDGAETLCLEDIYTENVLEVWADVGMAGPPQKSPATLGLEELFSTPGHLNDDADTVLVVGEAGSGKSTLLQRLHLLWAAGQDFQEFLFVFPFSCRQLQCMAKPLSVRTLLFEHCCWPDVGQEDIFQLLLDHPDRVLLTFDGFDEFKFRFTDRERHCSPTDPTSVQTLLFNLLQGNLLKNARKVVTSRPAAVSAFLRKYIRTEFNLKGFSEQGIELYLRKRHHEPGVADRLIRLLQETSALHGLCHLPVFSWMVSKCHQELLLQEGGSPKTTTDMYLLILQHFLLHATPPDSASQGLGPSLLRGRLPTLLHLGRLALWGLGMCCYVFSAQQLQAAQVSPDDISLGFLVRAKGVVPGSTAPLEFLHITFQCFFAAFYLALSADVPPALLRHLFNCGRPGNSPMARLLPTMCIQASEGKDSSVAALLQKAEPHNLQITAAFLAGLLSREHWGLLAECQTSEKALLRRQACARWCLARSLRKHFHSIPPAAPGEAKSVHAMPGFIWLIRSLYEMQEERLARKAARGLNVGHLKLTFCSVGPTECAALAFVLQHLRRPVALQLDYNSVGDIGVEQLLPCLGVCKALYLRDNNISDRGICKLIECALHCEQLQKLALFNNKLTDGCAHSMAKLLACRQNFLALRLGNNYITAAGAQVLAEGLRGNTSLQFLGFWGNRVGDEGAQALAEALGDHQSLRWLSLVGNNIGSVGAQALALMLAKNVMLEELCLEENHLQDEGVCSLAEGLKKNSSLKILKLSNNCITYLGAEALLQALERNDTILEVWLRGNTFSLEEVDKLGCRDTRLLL
Nucleotide-binding oligomerization domain-containing protein 1, sequence (Q9Y239 whole entry, the tested form may be a part): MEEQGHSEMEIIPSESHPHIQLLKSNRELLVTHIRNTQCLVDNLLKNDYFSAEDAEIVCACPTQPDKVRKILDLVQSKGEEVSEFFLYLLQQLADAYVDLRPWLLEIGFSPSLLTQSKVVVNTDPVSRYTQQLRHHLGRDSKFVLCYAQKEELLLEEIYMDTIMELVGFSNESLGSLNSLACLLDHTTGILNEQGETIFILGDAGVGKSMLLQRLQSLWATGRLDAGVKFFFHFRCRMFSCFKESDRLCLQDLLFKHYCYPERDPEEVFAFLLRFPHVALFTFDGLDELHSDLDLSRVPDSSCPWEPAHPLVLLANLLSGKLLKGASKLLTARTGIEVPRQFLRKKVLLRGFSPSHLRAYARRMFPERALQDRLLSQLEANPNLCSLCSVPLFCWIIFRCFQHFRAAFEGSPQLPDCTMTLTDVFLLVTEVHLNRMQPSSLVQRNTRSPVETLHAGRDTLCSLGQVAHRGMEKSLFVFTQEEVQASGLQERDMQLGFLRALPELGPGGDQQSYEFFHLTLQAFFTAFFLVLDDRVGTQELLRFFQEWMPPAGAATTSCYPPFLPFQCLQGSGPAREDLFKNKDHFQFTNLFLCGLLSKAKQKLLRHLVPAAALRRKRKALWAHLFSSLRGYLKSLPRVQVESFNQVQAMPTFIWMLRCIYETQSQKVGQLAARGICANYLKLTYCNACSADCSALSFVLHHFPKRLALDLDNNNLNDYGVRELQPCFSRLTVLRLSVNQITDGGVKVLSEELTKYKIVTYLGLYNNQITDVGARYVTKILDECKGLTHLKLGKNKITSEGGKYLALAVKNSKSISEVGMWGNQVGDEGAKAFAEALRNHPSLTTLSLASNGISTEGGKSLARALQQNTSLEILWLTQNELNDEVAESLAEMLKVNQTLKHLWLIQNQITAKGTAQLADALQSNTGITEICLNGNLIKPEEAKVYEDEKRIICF

Cc1ccc(-n2cc(CNC(C)c3cnn(C)c3)c(-c3ccc(F)cc3)n2)cc1 (stereo not given)
EC50 [1]: 37.3 µM (inactive) | EC50 [2]: 1.88 µM (active) | EC50 [3]: 2.42 µM (active) | EC50 [4]: > 92.5 µM (inactive)

COc1ccc(C2CC(c3ccc(OC)cc3)n3nc(NC(=O)c4cccs4)nc3N2)cc1 (stereo not given)
EC50 [1]: > 92.5 µM (inactive) | EC50 [3]: > 92.5 µM (inactive) | EC50 [4]: > 92.5 µM (inactive)

Cc1ccc(Cn2nc(C)c(NC(=O)c3cc(C)no3)c2C)cc1
AC50 [5]: > 380 µM (inactive)

C=CCNc1sc(C(=O)c2ccccc2)c(N)c1-c1nc2ccccc2s1
EC50 [6]: > 59.7 µM (inactive) | EC50 [7]: > 59.7 µM (inactive)

N#C/C(=C\C=C\c1ccccc1[N+](=O)[O-])C(=O)NCc1ccccc1
CC50 [8]: 15.3 µM (active) | EC50 [9]: > 120 µM (not active) | AC50 [10]: 14.7 µM (active) | IC50 [11]: > 25 µM (active) | EC50 [12]: > 120 µM (not active)

Cn1nccc1C(=O)N[C@@H]1CCCc2c1cnn2-c1ccccc1F
IC50 [13]: 18.7 µM (active) | IC50 [14]: > 20 µM (inactive) | IC50 [15]: > 20 µM (inactive) | IC50 [16]: > 20 µM (inactive)

COc1ccc(C(CNC(=O)c2ccc(S(=O)(=O)Nc3ccccc3F)cc2)N(C)C)cc1 (stereo not given)
IC50 [17]: > 100 µM (inactive) | IC50 [18]: 4.54 µM (active) | IC50 [19]: 6.59 µM (active) | IC50 [20]: > 20 µM (inactive)

C=CCc1c(C)nc(C)nc1N/N=C/c1ccc(N(C)C)cc1
AC50 [21]: 2.54 µM (active) | AC50 [22]: 26.4 µM (active)
